# Measured values reported in patent publication US20050089495A1, “Transdermal transport of compounds” (priority 2001, published 2005).
# Structures can show the parent of a compound that is named as a salt.
# Experiments:
# rats = test: Efficacy of atropine phosphate compared to atropine sulfate: heart rate after intravenous administration; assay type: in vivo; conditions: for heart rate after administration: IV 2 mg/kg in phosphate buffer, baseline approx. 350 bpm
# Procedure: The efficacy of atropine phosphate when compared to atropine sulfate was investigated in this example.
# Atropine sulfate and atropine phosphate formulated in phosphate buffer and given intravenously (IV) each to two rats at 2 mg/kg resulted similar increases in heart rates.
# For example, the baseline heart rate of a rat was approx. 350 bpm and increased to 450 bpm within 15 minutes after administration of atropine (either atropine phosphate or atropine sulfate). Approximately two hours later, normal heart rates were restored. This is regarded as a significant change in pulse rate.
# [1] = Transdermal delivery of testosterone and testosterone phosphate in the hairless rat model; total testosterone in plasma; conditions: topical carrier cream; for concentration of testosterone in blood after application: 1 μg
# [2] = females using the patches; cited from earlier work
# [3] = Acute transdermal penetration of 3H-Estradiol and 3H-Estradiol Phosphate in the hairless rat model; assay type: in vivo, female albino hairless rats; conditions: 24-hour period
# [4] = Transdermal delivery of estradiol and estradiol phosphate in the hairless rat model; total estrogens RIA in plasma
Compound,time until normal heart rates were restored (rats; IV 2 mg/kg),heart rate after administration (rats),concentration of testosterone in blood after application [1],also measured
CN1[C@@H]2CC[C@H]1CC(OC(=O)C(CO)c1ccccc1)C2.O=P(O)(O)O (stereo partly drawn) [atropine phosphate],Approximately two,450 bpm,–,effect on pulse rate (rats; IV 2 mg/kg): effective to increase pulse rate
"C[C@]12CC[C@H]3[C@@H](CCC4=CC(=O)CC[C@@]43C)[C@@H]1CC[C@@H]2O [T, Testosterone]",–,–,increased,"maximum concentration of total testosterone in plasma (mean±SD) ([1]; 1 μg on about 4 cm^2 dorsal skin, baseline t=0 subtracted): 30.90 ± 11.00 pg/mL"
"C[C@]12CC[C@@H]3c4ccc(O)cc4CC[C@H]3[C@@H]1CC[C@@H]2O [E, Estradiol]",–,–,–,females reporting skin irritation [2]: up to 17%
"C[C@]12CC[C@@H]3c4ccc(O)cc4CC[C@H]3[C@@H]1CC[C@@H]2OP(=O)(O)O [EP, Estradiol Phosphate]",–,–,–,"levels in the epidermis and dermis [3]: Higher levels; plasma concentration of the hormone compared to the E treatment ([4]; equivalent doses applied, 24-hour period): at least twice; concentration of estradiol in blood versus estradiol application ([4]; over a 24-hour period, P<0.01 at 2, 4 and 16 hours): consistently higher"
"CN1[C@@H]2CC[C@H]1C[C@@H](OC(=O)C(CO)c1ccccc1)C2 (stereo partly drawn) [atropine sulfate, reference compound]",Approximately two,450 bpm,–,–
Testosterone Phosphate [TP],–,–,increased,–
